Structures can show the parent of a compound that is named as a salt.
Experiments:
Format in all cases: physicochemical
[1] = release of benzydamine hydrochloride from hydrogel of crosslinked hyaluronic acid obtained with catalytic CuCl; conditions: hydrogel of HA (product 1 + product 2) crosslinked with catalytic CuCl, Example 11; release in 100 ml phosphate buffer solution pH=7.4
Procedure: 69 mg of benzydamine hydrochloride are dissolved in 2 ml of water and 50 mg of product 1 and 50 mg of product 2 synthesized as described above, are then added.
830 μL of a 1% w/V solution of CuCl are subsequently added to the solution and the gel is formed after a few minutes directly incorporating the drug.
The quantity of benzydamine hydrochloride released from the hydrogel, in 100 ml of a phosphate buffer solution pH=7.4, is determined by means of U.V. spectrophotometric measurements at λ=308 nm by interpolation of the absorbance values on a calibration line constructed using solutions of the drug at a known concentration.
(§1) The release measurements of the drug are performed on the hydrogel described above.

[2] = release of benzydamine hydrochloride from hydrogel of crosslinked hyaluronic acid obtained with catalytic CuSO4.5H2O; conditions: hydrogel of HA (product 1 + product 2) crosslinked with catalytic CuSO4.5H2O and ascorbic acid, Example 11; release in 100 ml distilled water
Procedure: 50 mg of product 1 and 50 mg of product 2 are dissolved in 1.3 ml of distilled water and separately 13.8 mg of benzydamine hydrochloride are dissolved in 0.5 ml of distilled water. The solution of hyaluronic acid is mixed with that of benzydamine hydrochloride; 0.1 ml of an aqueous solution obtained with 50 mg of CuSO4.5H2O in 1 ml of H2O and 0.1 ml of an aqueous solution of 20 mg of ascorbic acid are then added.
The mixture is stirred vortically for a few minutes. The rapidly formed gel incorporates the benzydamine hydrochloride inside.
(§2) The quantity of benzydamine hydrochloride released from the hydrogel, in 100 ml of distilled water, is determined by means of U.V. spectrophotometric measurements at λ=308 nm by interpolation of the absorbance values on a calibration line constructed using solutions of the drug at known concentration.
as §1

[3] = release of benzydamine hydrochloride from hydrogel of hyaluronic acid with 1,6-Heptadiyne; conditions: hydrogel of HA (product 1) with 1,6-heptadiyne, catalytic CuSO4.5H2O and ascorbic acid, Example 13; release in 100 ml distilled water
Procedure: (§3) 100 mg of product 1 are dissolved in 1.1 ml of distilled water; a solution of 140 μl of 1,6-Heptadiyne in 9.86 ml of DMSO are prepared separately, whereas 13.8 mg of benzydamine hydrochloride are dissolved in 0.5 ml of distilled water. The solution of hyaluronic acid is mixed with that of benzydamine and with 0.2 ml of that of 1,6-Heptadiyne; 0.1 ml of an aqueous solution obtained with 50 mg of CuSO4.5H2O in 1 ml of H2O and 0.1 mL of an aqueous solution of 20 mg of ascorbic acid are then added. The mixture is stirred vortically for a few minutes. The rapidly formed gel incorporates the benzydamine hydrochloride inside.
as §2

[4] = release of doxorubicin hydrochloride from hydrogel of hyaluronic acid with 1,8-Nonadiyne; conditions: hydrogel of HA (product 1) with 1,8-Nonadiyne, catalytic CuSO4.5H2O and ascorbic acid, Example 13; release in 100 ml distilled water
Procedure: 100 mg of product 1 are dissolved in 1.1 ml of distilled water; a solution of 200 μl of 1,8-Nonadiyne in 11.23 ml of DMSO are prepared separately, whereas 23.2 mg of doxorubicin hydrochloride are dissolved in 0.5 ml of distilled water. The solution of hyaluronic acid is mixed with that of doxorubicin and with 0.2 ml of that of 1,8-Nonadiyne; 0.1 ml of an aqueous solution obtained with 50 mg of CuSO4.5H2O in 1 ml of H2O and 0.1 ml of an aqueous solution of 20 mg of ascorbic acid are then added. The mixture is stirred vortically for a few minutes. The rapidly formed gel (see FIG. 31) incorporates the doxorubicin hydrochloride inside.
(§4) The quantity of doxorubicin hydrochloride released from the hydrogel, in 100 ml of distilled water, is determined by means of U.V. spectrophotometric measurements at λ=486 nm by interpolation of the absorbance values on a calibration line constructed using solutions of the drug at known concentration.
as §1

[5] = release of doxorubicin hydrochloride from hydrogel of hyaluronic acid with 1,6-heptadiyne; conditions: hydrogel of HA (product 1) with 1,6-heptadiyne, catalytic CuSO4.5H2O and ascorbic acid, Example 13; release in 100 ml distilled water
Procedure: as §3, with “23.2” for “13.8”, “doxorubicin” for “benzydamine”, “ml” for “mL”, “gel (see FIG. 28)” for “gel”
as §4

[6] = release of doxorubicin hydrochloride from hydrogel of hyaluronic acid with 1,4-diethynylbenzene; conditions: hydrogel of HA (product 1) with 1,4-diethynylbenzene, catalytic CuSO4.5H2O and ascorbic acid, Example 13; release in 100 ml distilled water
Procedure: 100 mg of product 1 are dissolved in 1.1 ml of distilled water and 3 mg of 1,4-Diethynylbenzene are dissolved separately in 0.2 ml of DMSO, whereas 23.2 mg of doxorubicin hydrochloride are dissolved in 0.5 ml of distilled water. The three solutions are mixed, 0.1 ml of an aqueous solution obtained with 50 mg of CuSO4.5H2O in 1 ml of H2O and 0.1 ml of an aqueous solution of 20 mg of ascorbic acid are then added. The mixture is stirred vortically for a few minutes. The rapidly formed gel (see FIG. 26) incorporates the doxorubicin hydrochloride inside.
as §4
The release measurements of the drug are effected on the hydrogel described above.

[7] = release of doxorubicin hydrochloride from hydrogel of crosslinked hyaluronic acid obtained with catalytic CuCl; conditions: hydrogel of HA (product 1 + product 2) crosslinked with catalytic CuCl, Example 11; release in 100 ml distilled water
Procedure: 29 mg of doxorubicin hydrochloride are dissolved in 2 ml of water and 50 mg of product 1 and 50 mg of product 2 synthesized as described above, are then added. 830 μL of a 1% w/V solution of CuCl are subsequently added to the solution and the gel is formed after a few minutes directly incorporating the drug present in solution.
The quantity of doxorubicin hydrochloride released from the hydrogel in 100 ml of distilled water, is determined by U.V. spectrophotometric measurements at λ=486 nm by interpolation of the absorbance values on a calibration line constructed using solutions of the drug at known concentration.
as §1

Structure (SMILES)	maximum quantity released, of the quantity of drug initially incorporated in the gel [1] [%]	period over which the maximum quantity of drug is released [1]	maximum quantity released, of the quantity of drug initially incorporated in the gel [2] [%]	period over which the maximum quantity of drug is released [2]	maximum quantity released, of the quantity of drug initially incorporated in the gel [3] [%]	period over which the maximum quantity of drug is released [3]	maximum quantity released, of the quantity of drug initially incorporated in the gel [4] [%]	period over which the maximum quantity of drug is released [4]	maximum quantity released, of the quantity of drug initially incorporated in the gel [5] [%]	period over which the maximum quantity of drug is released [5]	maximum quantity released, of the quantity of drug initially incorporated in the gel [6] [%]	period over which the maximum quantity of drug is released [6]	maximum quantity released, of the quantity of drug initially incorporated in the gel [7] [%]	period over which the maximum quantity of drug is released [7]
CN(C)CCCOc1nn(Cc2ccccc2)c2ccccc12 [benzydamine hydrochloride]	88	about 3.5 h	70	about 5 h	80	about 6 h								
COc1cccc2c1C(=O)c1c(O)c3c(c(O)c1C2=O)C[C@@](O)(C(=O)CO)C[C@@H]3O[C@H]1C[C@H](N)[C@H](O)[C@H](C)O1 [doxorubicin hydrochloride]							14	about 100 h	23	about 250 h	50	about 50 h	25	about 160 h
